One experiment deals with T1, human P2X2/3 receptor (Homo sapiens, UniProt P56373+Q9UBL9).
T1 construct: expressed in transfected cells; host or cells: CHO-K1
T1 sequence (Q9UBL9 1-471): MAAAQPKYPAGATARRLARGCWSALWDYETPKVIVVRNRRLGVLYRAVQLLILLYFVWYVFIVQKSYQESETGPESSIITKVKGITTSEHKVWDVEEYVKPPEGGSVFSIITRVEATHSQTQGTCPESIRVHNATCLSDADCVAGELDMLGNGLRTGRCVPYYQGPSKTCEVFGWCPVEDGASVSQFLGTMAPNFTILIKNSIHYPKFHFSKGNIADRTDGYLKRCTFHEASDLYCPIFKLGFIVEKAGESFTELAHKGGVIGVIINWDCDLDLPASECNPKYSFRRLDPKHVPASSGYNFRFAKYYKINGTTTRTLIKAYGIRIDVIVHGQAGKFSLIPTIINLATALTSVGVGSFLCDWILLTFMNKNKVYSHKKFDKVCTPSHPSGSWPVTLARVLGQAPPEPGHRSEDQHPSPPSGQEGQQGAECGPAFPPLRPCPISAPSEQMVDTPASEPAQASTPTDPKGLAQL
T1 sequence (P56373 1-397): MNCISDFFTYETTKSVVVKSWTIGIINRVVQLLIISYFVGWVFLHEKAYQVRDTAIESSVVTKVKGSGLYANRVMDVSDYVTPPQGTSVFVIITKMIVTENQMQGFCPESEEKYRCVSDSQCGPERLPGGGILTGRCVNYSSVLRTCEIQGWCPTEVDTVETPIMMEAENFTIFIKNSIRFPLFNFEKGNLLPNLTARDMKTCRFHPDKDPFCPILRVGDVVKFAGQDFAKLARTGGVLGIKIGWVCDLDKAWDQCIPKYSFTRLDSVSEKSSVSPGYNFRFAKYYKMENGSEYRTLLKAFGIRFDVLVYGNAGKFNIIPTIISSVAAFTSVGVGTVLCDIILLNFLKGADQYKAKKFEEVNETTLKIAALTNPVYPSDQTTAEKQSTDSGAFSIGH
The experiment is described as follows: P2X2/3 FLIPR (Fluorometric Imaging Plate Reader) assay. Conditions: CHO-K1 cells transfected with human P2X2/3; agonist α,β-meATP 5 μM; Fluo-3 AM fluorescence; read-out: pKi for the P2X2/3 receptor (converted). The experiment is classed as cell-based. The procedure: (§1) CHO-K1 cells were transfected with cloned rat P2X3 or human P2X2/3 receptor subunits and passaged in flasks. 18-24 hours before the FLIPR experiment, cells were released from their flasks, centrifuged, and resuspended in nutrient medium at 2.5×10^5 cells/ml. The cells were aliquoted into black-walled 96-well plates at a density of 50,000 cells/well and incubated overnight in 5% CO2 at 37° C. On the day of the experiment, cells were washed in FLIPR buffer (calcium- and magnesium-free Hank's balanced salt solution, 10 mM HEPES, 2 mM CaCl2, 2.5 mM probenecid; FB). Each well received 100 μl FB and 100 μl of the fluorescent dye Fluo-3 AM [2 μM final conc.]. […]
(§2) Test compounds (dissolved in DMSO at 10 mM and serially diluted with FB) or vehicle were added to each well (25 μl of a 4× solution) and allowed to equilibrate for 20 minutes at room temperature. The plates were then placed in the FLIPR and a baseline fluorescence measurement (excitation at 488 nm and emission at 510-570 nm) was obtained for 10 seconds before a 100 μl/well agonist or vehicle addition. […] Fluorescence was measured for an additional 2 minutes at 1 second intervals after agonist addition. A final addition of ionomycin (5 μM, final concentration) was made to each well of the FLIPR test plate to establish cell viability and maximum fluorescence of dye-bound cytosolic calcium. […]

The target in another experiment is T2, rat P2X3 receptor (Rattus norvegicus, UniProt P49654).
T2 construct: expressed in transfected cells; host or cells: CHO-K1
T2 sequence (P49654 1-397): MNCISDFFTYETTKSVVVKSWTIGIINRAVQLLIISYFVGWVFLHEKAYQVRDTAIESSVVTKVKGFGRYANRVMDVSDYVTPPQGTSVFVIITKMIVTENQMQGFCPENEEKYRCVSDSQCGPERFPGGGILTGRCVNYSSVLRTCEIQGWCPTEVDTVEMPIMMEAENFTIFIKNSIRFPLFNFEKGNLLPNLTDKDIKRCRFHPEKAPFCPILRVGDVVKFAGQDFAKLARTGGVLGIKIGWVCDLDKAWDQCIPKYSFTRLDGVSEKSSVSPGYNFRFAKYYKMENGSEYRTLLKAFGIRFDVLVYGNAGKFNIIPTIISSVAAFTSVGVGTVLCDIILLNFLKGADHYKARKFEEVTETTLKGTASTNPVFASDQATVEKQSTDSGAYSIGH
The experiment is described as follows: P2X3 FLIPR (Fluorometric Imaging Plate Reader) assay. Particulars: CHO-K1 cells transfected with cloned rat P2X3; agonist α,β-meATP 1 μM; Fluo-3 AM fluorescence; read-out: pIC50 for the P2X3 receptor (converted). The experiment is classed as cell-based. The procedure:
as §1, §2

SMILES strings stand for the structures.

`Cc1ccc(-c2cc(C(=O)NCc3ccc(C)nn3)cc(-n3nccc3CC(C)C)c2)nc1` [Compound 101, 3-(5-Isobutyl-pyrazol-1-yl)-N-(6-methyl-pyridazin-3-ylmethyl)-5-(5-methyl-pyridin-2-yl)-benzamide]: the Ki on human P2X2/3 receptor was approximately 21.4 nM. As for `Cc1ccc(-c2cc(C(=O)N[C@@H](C)CO)cc(-c3ccnn3C3CCC3)c2)nc1` [Compound 70, 3-(2-Cyclobutyl-2H-pyrazol-3-yl)-N-((S)-2-hydroxy-1-methyl-ethyl)-5-(5-methyl-pyridin-2-yl)-benzamide], on rat P2X3 receptor, the IC50 was approximately 2.14 nM.

Values taken from US9896439B2, “Pyrazole-substituted arylamides as P2X3 and P2X2/3 antagonists” (Roche Palo Alto LLC, priority 2007, dated 2018).
